Earlier results in patent US20150258085A1, “Treating Tumors of the Central Nervous System” (THE REGENTS OF THE UNIVERSITY OF CALIFORNIA, priority 2012, published 2015).

System: newly diagnosed glioblastoma
Conditions: systemic irinotecan plus TMZ versus TMZ alone

CCc1c2c(nc3ccc(OC(=O)N4CCC(N5CCCCC5)CC4)cc13)-c1cc3c(c(=O)n1C2)COC(=O)[C@]3(O)CC [irinotecan]
clinical outcome: comparable to TMZ alone | toxicity / tolerability: more toxic and poorly tolerated
